The record followed here is patent publication US11851430B1, “Pyrido[4,3-B]indole-7-carboxylic acid compounds as CK2 inhibitors” (KING FAISAL UNIVERSITY, priority 2023, dated 2023).

The test system of test [1] is MCF7 (breast) cancer cells. Put plainly: In vitro cytotoxic activity (MTT) assay, MCF7. Type of test: cell-based. To be noted: Homo sapiens, exposed for 96 hours, read-out: IC50, inhibition of cell proliferation, MCF7 (breast). As for the experimental part:
(§1) Compounds 1-12 were screened for their in vitro cytotoxic activity utilizing a 3-(4,5-dimethyl-thiazol-2-yl)-2,5-diphenyltetrazolium bromide (MTT) assay against selected cancer human cell lines consisting of PC3 (prostate), HCT116 (colon), A375 (melanoma), H1299 (lung), MIAPaCa-2 (pancreas), HL60 (leukemia), MCF7 (breast), MDA-MB-231 (breast) (T. Mosmann, J. Immunol. Meth., 1983, 65, 55-63). The cells were cultured at 37° C. in RMPI1640 medium supplemented with 10% fetal bovine serum, 50 IU/mL penicillin, and 50 μg/mL streptomycin in a 5% CO2 incubator. All cells were sub-cultured 3 times/week by trypsinisation. Viable cells were seeded and allowed to adhere for 12 h before a test drug was added in 96-well plates at an initial density of 1.0×10^5 cells/mL. Tumour cell lines were separately exposed to various concentrations of the tested compounds followed by incubation at a temperature of 37° C. during 96 h inside a medium of fresh RMPI 1640. Cells were subsequently incubated at 37° C. using MTT at 0.5 mg/mL during 4 h. After removal of supernatant, formazan crystals were dissolved in isopropanol and the optical density was measured at 570 nm. CX-4945 was used as a positive control.

Test [2] concerns MDA-MB-231 (breast) cancer cells. Put plainly: In vitro cytotoxic activity (MTT) assay, MDA-MB-231. Particulars: Homo sapiens; MDA-MB-231 cells, exposed for 96 hours; read-out: IC50, inhibition of cell proliferation, MDA-MB-231 (breast). Type of test: cell-based. As for the experimental part:
as §1

For test [3], the system named is HCT116 (colon) cancer cells. In words: In vitro cytotoxic activity (MTT) assay, HCT116. It is filed as cell-based. Particulars: Homo sapiens, HCT-116, exposed for 96 hours, read-out: IC50, inhibition of cell proliferation, HCT116 (colon). As for the experimental part:
as §1

The test system of test [4] is A375 (melanoma) cancer cells. In words: In vitro cytotoxic activity (MTT) assay, A375. It is filed as cell-based. To be noted: Homo sapiens, A-375, exposed for 96 hours, read-out: IC50, inhibition of cell proliferation, A375 (melanoma). The procedure: as §1
Test [5] relates to HL60 (leukemia) cancer cells. Put plainly: In vitro cytotoxic activity (MTT) assay, HL60. It is filed as cell-based. To be noted: Homo sapiens, HL-60, exposed for 96 hours, read-out: IC50, inhibition of cell proliferation, HL60 (leukemia). The procedure:
as §1

The test system of test [6] is H1299 (lung) cancer cells. Put plainly: In vitro cytotoxic activity (MTT) assay, H1299. Type of test: cell-based. To be noted: Homo sapiens, NCI-H1299, exposed for 96 hours, read-out: IC50, inhibition of cell proliferation, H1299 (lung). As for the experimental part:
as §1

Test [7] relates to PC3 (prostate) cancer cells. In words: In vitro cytotoxic activity (MTT) assay, PC3. It is filed as cell-based. To be noted: Homo sapiens, PC-3, exposed for 96 hours, read-out: IC50, inhibition of cell proliferation, PC3 (prostate). The procedure: as §1
The subject of test [8] is MIAPaCa-2 (pancreas) cancer cells. In words: In vitro cytotoxic activity (MTT) assay, MIAPaCa-2. Type of test: cell-based. To be noted: Homo sapiens, MIA PaCa-2; MIAPaCa-2 cells, exposed for 96 hours; read-out: IC50, inhibition of cell proliferation, MIAPaCa-2 (pancreas). As for the experimental part:
as §1

The target in test [9] is T1, recombinant human CK2 (RRββ-holoenzyme) (Homo sapiens, UniProt P68400).
T1 construct: purchased Millipore
In words: CK2 kinase assay (radiometric, [γ-33P]ATP). It is filed as biochemical. To be noted: final ATP 15 μM, 10 min at 30° C., eight concentrations; read-out: IC50, protein kinase CK2 activity. As for the experimental part:
CK2 Kinase Assay was conducted using the protocol as described in Pierre F. et al; J. Med. Chem. 2011, 54, 635-654. The tested compounds in aqueous solution were added at a volume of 10 μL to a reaction mixture comprising 10 μL of assay dilution buffer (ADB; 20 mM MOPS, pH 7.2, 25 mM β-glycerol phosphate, 5 mM EGTA, 1 mM sodium orthovanadate, and 1 mM dithiothreitol), 10 μL of substrate peptide (RRRDDDSDDD, dissolved in ADB at a concentration of 1 mM), 10 μL of recombinant human CK2 (RRββ-holoenzyme, 25 ng dissolved in ADB; Millipore). Reactions were initiated by the addition of 10 μL of ATP solution (90% 75 mMMgCl2, 75 μM ATP (final ATP concentration:15 μM) dissolved in ADB; 10% [γ-33P] ATP (stock 1 mCi/100 μL; 3000 Ci/mmol (Perkin-Elmer) and maintained for 10 min at 30° C. The reactions were quenched with 100 μL of 0.75% phosphoric acid and then transferred to and filtered through a phosphor cellulose filter plate (Millipore). After washing each well five times with 0.75% phosphoric acid, the plate was dried under vacuum for 5 min and, following the addition of 15 μL of scintillation fluid to each well, the residual radioactivity was measured using a Wallac luminescence counter. The IC50 values were derived from eight concentrations of test inhibitors.

T1 sequence (P68400 whole entry): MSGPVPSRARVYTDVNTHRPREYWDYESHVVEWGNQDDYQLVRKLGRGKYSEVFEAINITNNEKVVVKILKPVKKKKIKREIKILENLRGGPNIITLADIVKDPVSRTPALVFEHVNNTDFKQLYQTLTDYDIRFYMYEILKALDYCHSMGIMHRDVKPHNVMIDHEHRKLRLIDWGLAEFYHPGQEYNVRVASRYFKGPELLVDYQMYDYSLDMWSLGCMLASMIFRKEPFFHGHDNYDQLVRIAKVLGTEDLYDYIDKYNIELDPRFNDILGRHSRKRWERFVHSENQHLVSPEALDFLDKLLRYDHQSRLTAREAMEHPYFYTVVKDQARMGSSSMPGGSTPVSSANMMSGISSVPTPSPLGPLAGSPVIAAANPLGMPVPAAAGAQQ
T1 sequence (P67870 whole entry partner): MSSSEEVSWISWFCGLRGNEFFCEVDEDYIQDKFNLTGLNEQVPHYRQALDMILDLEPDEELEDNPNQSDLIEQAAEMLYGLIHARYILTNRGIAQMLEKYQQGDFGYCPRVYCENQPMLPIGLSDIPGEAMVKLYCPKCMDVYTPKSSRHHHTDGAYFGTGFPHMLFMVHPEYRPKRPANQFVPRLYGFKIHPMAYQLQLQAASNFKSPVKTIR

Turning to `O=C(O)c1ccc2c3cnccc3n(C(=O)c3cccc(Cl)c3)c2c1` [Compound (7), 5-(3-chlorobenzoyl)-5H-pyrido[4,3-b]indole-7-carboxylic acid], the IC50 in [1] came to 5200 nM; in [2] it was 3600 nM; in test [3], 1600 nM; in test [4] it was 4400 nM; in [5], 1700 nM; in test [6], 1100 nM. Also, the IC50 in test [7] stood at 900 nM; in [8] it was 2300 nM; in test [9] it was 36 nM.
